Laboratory results as given in patent US12370180B2, “P38 map kinase inhibitors for treating Friedreich's ataxia” (THE TRUSTEES OF THE UNIVERSITY OF PENNYSLVANIA, priority 2015, dated 2025).
Positions count from the first letter of the chain named. “Also recorded” adds a separate entry of the source.

Tests used:
Type in all cases: cell-based, human
[1] = system: primary FA fibroblasts; test: Growth of primary FA fibroblasts in beta-hydroxybutyrate (BHB) based mitochondrial stress medium; conditions: for reversal of the slow-growth phenotype (growth defect) of primary FA fibroblasts: beta-hydroxybutyrate-based media
Procedure: The data shown are the means of triplicate samples+/−one SD. ***p<0.005. (C) Survival of normal control fibroblasts (GM8402) and FA fibroblasts (GM4078) in DMEM plus BHB after 12 days in culture. ***p<0.005. […] Cells were seeded at 80,000 cells per 100 mm dish and were kept sub-confluent. The data shown are the means of triplicate samples+/−one SD. ***p<0.005.
FA 3665B cells were infected with gFA2 (squares), gFA11 (diamonds) or a random clone (C3) (triangles). Cells were then sorted and GFP-positive cells were grown in DMEM plus BHB 5 mM (FIG. 4A) or in DMEM plus 5 mM glucose (FIG. 4B) ***=p […].
FA is caused by intronic trinucleotide repeat expansions that decrease expression of frataxin, a protein involved in mitochondrial iron-sulfur-cluster biogenesis. Clones were selected that reverse the slow-growth phenotype of primary FA fibroblasts in media with beta-hydroxybutyrate, a carbon source that particularly stresses cells with mitochondrial dysfunction (FIGS. 1 and 3). Among several clones identified, two clones have been tested and confirmed (FIG. 4): “Clone 2” (also referred to as gFA2) and “Clone 11” (also referred to as gFA11). The DNA coding strand for the shRNA sequences of those two […] (gFA2 and gFA11) are provided below, with the loop-encoding sequences in brackets. The shRNAs themselves are RNA versions of these sequences, with T changed to U.
These experiments have been repeated several times, over 4 days, 7 days, and 10 days, with the same results. Therefore, random shRNA screening can be combined with bioinformatic pattern matching to identify conventional chemical-compound therapeutic candidates, and potential therapeutic target proteins.

[2] = system: frataxin; test: Frataxin expression in primary FA fibroblasts; conditions: vector-expressed shRNA or 10 nM transfected siRNA, BHB medium
Procedure: Frataxin expression in GM3816 cells infected with gFA2 vs. a random clone (C3) (FIG. 5A) and in GM3665B cells transfected with 10 nM gFA2 siRNA or a random clone (C3) (FIG. 5B). Cells were transfected every 3-4 days for two weeks and kept in BHB medium after the first transfection. ***=p value<0.005
FIG. 6: Hit-optimization of clone gFA2. A sub-library of ˜3000 sequences was constructed, each with a limited number of random mutations compared to gFA2. This sub-library was screened as described previously and two gFA2-variant clones, gFA2.8 and gFA2.10, were identified. […] (Cells were transfected every two days for one week and kept in DMEM plus 5 mM BHB after the first transfection. ***=p value<0.005). gFA2.8 has 5 mutations compared to gFA2; as a result, there are 5 mismatched bases in the hairpin structure.

[3] = system: cytokine secretion; test: Cytokine secretion into media of FA cells, measured by ELISA; conditions: media of FA cells expressing clone vs gFA11-Mut1
Text: FIGS. 9A and 9B show the effect of gFA11 and gFA11-Mut1 shRNA sequences on the secretion of cytokines as measured by ELISA. […] These secretion patterns matched the expression changes seen on microarray analysis of mRNAs of the same cytokines.
(§1) Of relevance, it has been shown that silencing of the FA disease gene induces a senescence phenotype. […] Finally, gene-expression analyses of cells expressing Clone 11 also indicated an up-regulation of genes involved in DNA repair.

[4] = system: GM3816 cells; test: Sensitivity of FA cells to ionizing (gamma) radiation; conditions: 0.6 Gy irradiation
Text: as §1

For `CNC(=O)c1ccc(C)c(-n2c(C)cc(OCc3ccc(F)cc3F)c(Br)c2=O)c1` [PH-797804], the “reversal of the slow-growth phenotype (growth defect) of primary FA fibroblasts” value (shortened to “reversal of the slow-growth phenotype”) [1] was “reversal of the growth defect”.

With `Cc1ccc(-n2nc(C(C)(C)C)cc2NC(=O)Nc2ccc(OCCN3CCOCC3)c3ccccc23)cc1` [BIRB-796, doramapimod] the “reversal of the slow-growth phenotype” value [1] was “recapitulate the phenotype induced by Clone 11; also recorded: reverses the growth defect”.

With “gFA11: hit shRNA from random library, SEQ ID No: 2; siRNA version SEQ ID No: 3 and 4 (chain 1 AACAGAAUGGAAGAGUGCUGGGUDGDG; chain 2 UGUUGUCUUACCUUCUCACGACCCACC; listed as RNA, chemistry not fully specified; one strand is listed 3' to 5')” the “reversal of the slow-growth phenotype” value [1] was “increase the growth of FA fibroblasts; also recorded: growth-enhancing effect; also recorded: recapitulate the phenotype induced by the corresponding shRNA sequence”, the “reversal of the slow-growth phenotype” value ([1]; listed as Clone 11) was “more effective than Clone 2” and the frataxin expression [2] was “does not increase frataxin expression”. For the same molecule, the GM-CSF secretion ([3]; p<0.001) was “decreases”, the VEGF secretion ([3]; p<0.001) was “decreases” and the “IL8 (IL-8) secretion” value ([3]; p=0.001) was “decreases”. For the same molecule, the GRO secretion ([3]; p=0.003) was “decreases”, the MCP-1 secretion ([3]; p=0.005) was “decreases” and the “IL1-beta (IL-1-beta) secretion” value ([3]; p=0.01) was “decreases”. The IP-10 secretion ([3]; p=0.01) was “decreases”, the RANTES secretion ([3]; p=0.04) was “decreases” and the “IL6 (IL-6) secretion” value ([3]; p=0.09) was “decreases”. The “cell susceptibility to gamma irradiation” value [4] was “are able to recover” and the “cell susceptibility to gamma irradiation” value ([4]; listed as Clone 11) was “protective”.

With `Cc1ccc(-n2nc(C(C)(C)C)cc2NC(=O)NCc2cc(F)ccc2Oc2ccc3c(cnn3CCO)c2)cc1` [ARRY-614, pexmetinib] the “reversal of the slow-growth phenotype” value [1] was “reversal of the growth defect”.

For `Cc1c(F)cc(C(=O)NC2CC2)cc1-c1ccc(C(=O)NCC(C)(C)C)cn1` [GW-856553, losmapimod], the “reversal of the slow-growth phenotype” value [1] was “reversal of the growth defect”.

For `NC(=O)c1ccc(N(C(N)=O)c2c(F)cccc2F)nc1-c1ccc(F)cc1F` [VX-702], the increased growth ([1]; at 500 nM, p=0.02) was 1.2 fold and the “reversal of the slow-growth phenotype” value [1] was “recapitulate the phenotype induced by Clone 11; also recorded: reversal of the growth defect”.

In the case of `O=c1ncn2nc(Sc3ccc(F)cc3F)ccc2c1-c1c(Cl)cccc1Cl` [VX-745], the “reversal of the slow-growth phenotype” value [1] is reported as “reversal of the growth defect”.

ralimetinib dimesylate [LY-2228820] was tested, and the increased growth ([1]; at 50 nM, p<0.005) was 1.6 fold and the “reversal of the slow-growth phenotype” value [1] was “recapitulate the phenotype induced by Clone 11; also recorded: reversal of the growth defect”.

In the case of `C[S+]([O-])c1ccc(-c2nc(-c3ccncc3)c(-c3ccc(F)cc3)[nH]2)cc1` (centres unmarked) [SB-203580], the “reversal of the slow-growth phenotype” value [1] is reported as “recapitulates the phenotype induced by Clone 11; also recorded: reverses the growth defect” and the “reversal of the slow-growth phenotype” value ([1]; listed as SB203580) is reported as “increase the growth of FA cells in a dose-dependent manner”.

“gFA11-Mut1: version of Clone 11 with a point mutation in the seed sequence, SEQ ID No: 5 and 6 (chain 1 AACACAAUGGAAGAGUGCUGGGUDGDG; chain 2 UGUUGUGUUACCUUCUCACGACCCACC; listed as RNA, chemistry not fully specified; one strand is listed 3' to 5')” was tested, and the “reversal of the slow-growth phenotype” value [1] was “diminished; also recorded: the growth-enhancement phenotype of gFA11 is affected”.

For `Oc1ccc(-c2nc(-c3ccncc3)c(-c3ccc(F)cc3)[nH]2)cc1` [SB-202190], the “reversal of the slow-growth phenotype” value [1] was “recapitulate the phenotype induced by Clone 11; also recorded: reversal of the growth defect”.

B1: gFA2: hit shRNA (also used as siRNA) from random shRNA library, SEQ ID No: 1 (nucleic acid)
chain: GCCAATCGGGGAGGTCGGCGCATATCATGCTAAACCATGATATGCGCCGACCTCCCCGATTGGC
For B1, the “reversal of the slow-growth phenotype” value [1] was “increase the growth of FA fibroblasts”, the frataxin expression [2] was “increases frataxin expression” and the frataxin expression ([2]; listed as Clone 2) was “partially reverses the decreased expression of frataxin”.

B2: gFA2.10: gFA2-variant clone, SEQ ID No: 10 (nucleic acid)
chain: B1 chain with A4C, A5C, G11C, C21A, C36T, C54T
modifications: expressed or natural sequence
For B2, the frataxin expression [2] was “more efficacious”.

B3: gFA2.8: gFA2-variant clone with 5 mutations compared to gFA2, SEQ ID No: 9 (nucleic acid)
chain: B1 chain with A4C, A5C, G11C, C21A, C36T
modifications: expressed or natural sequence
For B3, the frataxin expression [2] was “more efficacious”.
